Laboratory results from patent publication US20110230430A1, “SAPONIN EXTRACT FROM SAPONARIA SPP. AND USES THEREOF” (NATIONAL RESEARCH COUNCIL OF CANADA, priority 2008, published 2011).

Legend:
CRL-2522 cells = experiment: Dual Sensor: MitoCasp Assay in CRL-2522 normal fibroblast cells; type: cell-based, human; conditions: for Cells with caspase 3/7 activity / Cells with decreased mitochondrial membrane potential / Effect on apoptosis (in words) / Cells with Caspase 3/7 activity and decreased mitochondrial membrane potential vs untreated (in words): CRL-2522 cells; for Apoptosis in non-cancerous cell line (summary in words): fibroblast cell line CRL-2522, summary of the Examples
Excerpt: (§1) Techniques to assay enzymatic and signaling processes involved in apoptosis have been developed as standard protocols. One example of an early step in apoptosis, is the release of cytochrome C from mitochondria and the activation of caspase-3. Induction of the caspases (a series of cytosolic proteases) is one of the most consistently observed features of apoptosis. Caspases are a family of proteolytic enzymes that transmit the apoptotic signal using a proteolytic cascade. […] Caspases 3 and 7 are effector caspases, central to the caspase cascade pathways. In particular, caspase-3 plays a central role in the process. When caspases are activated, they cleave target proteins; one of the most important of these is poly-(ADP-ribose) polymerase (PARP), which is a protein located in the nucleus. Therefore, assays detecting release of cytochrome C, detecting caspase-3 activity and detecting PARP degradation are effective determinants of apoptosis. The loss of mitochondrial membrane potential is known to occur during apoptosis. To analyze mitochondrial membrane potential, a cationic dye may be used which accumulates in the mitochondria of healthy cells. Collapse of the mitochondrial membrane potential during apoptosis prevents the dye from accumulating in the mitochondria resulting in a decrease in fluorescent intensity that can be detected with flow cytometry. Dual Sensor: MitoCasp™ (Cell Technology) used herein in the Examples is an assay that measures caspase 3/7 activity and cells with decreased mitochondrial membrane potential. In this assay, caspase 3/7 activity is detected using a cell permeable carboxyfluorescein labeled caspase inhibitor, which binds covalently to active caspases 3 and 7. Cells that contain bound inhibitor are detected by an increase in fluorescence when samples are analyzed by flow cytometry.
(§2) Following centrifugation at 500×g for 5 min, cell pellets were resuspended in PBS at 3.3×10^6 cells/mL. 300 μL cell suspension was mixed with 10 μL each of 30X Mitochondria Membrane Potential Dye and 30X Caspase 3/7 detection reagent. Following incubation for 60 min under normal growth conditions, cells were washed twice with 1× wash buffer and resuspended in 0.5 mL 1× wash buffer. Samples were analyzed by flow cytometry measuring the fluorescence emissions from 515 nm to 530 nm for caspase detection, and 574 nm to 600 nm for mitochondrial membrane potential detection.
CRL-2522 cells, acquired from ATCC, (American Type Culture Collection) are normal fibroblast cells that originated from human foreskin. CRL-2522 cells were maintained in RPMI 1640 medium (Gibco) supplemented with 10% fetal bovine serum (Cansera), 100 U/mL penicillin, 100 μg/mL streptomycin and 0.25 μg/mL amphotericin B. Cultures were maintained in medium at 37° C. with 5% CO2 and 100% relative humidity. […]

PC-3 cells = experiment: Vybrant Apoptosis Assay Kit #2 in PC-3 cells; type: cell-based, human
Excerpt: Another apoptotic assay is the Annexin-V detection of extracellular phosphatidlyserine (PS). Normally, phosphatidylserine is localized on the inner membrane of the plasmalemma. However, during the early stages of apoptosis, externalization of PS takes place. Annexin-V is a calcium binding protein which binds to PS and can be observed with annexin-V-FITC staining by flow cytometry (Martin, et al., 1995). Alexa Fluor® 488-labeled Annexin V, which has a high affinity for PS, is used to detect apoptotic cells by binding to PS on the outer surface of the cell. Propidium iodide staining is used concurrently to detect dead cells. When cells are analyzed by flow cytometry apoptotic cells show Annexin V staining, late apoptotic cells show PI and Annexin V staining, and dead cells show only PI staining. The Vybrant® Apoptosis Assay Kit #2 (Molecular Probes™) used herein in the Examples is an assay that measures Annexin-V positive cells.
PC-3 cells (ATCC #CRL-1435) were derived from a prostate adenocarcinoma (Kaighn et al., 1979). They were maintained in RPMI 1640 medium (Gibco) supplemented with 10% fetal bovine serum (Cansera), 100 U/mL penicillin, and 100 μg/mL streptomycin and 0.25 μg/mL amphotericin B. Cultures were maintained in medium at 37° C. with 5% CO2 and 100% relative humidity.
PC-3 cells were seeded in tissue culture flasks with regular growth medium and maintained under normal conditions. […] Following incubation under normal growth conditions for the specified time, cells were washed once with cold phosphate-buffered saline (PBS) (137 mM NaCl, 2.7 mM KCl, 4.3 mM Na2HPO4.7H2O, 1.4 mM KH2PO4) and harvested as previously described. Assays were carried out according to instructions given in kits. All Flow Cytometry was performed using a Coulter Epics XL (Beckman).

MDA-MB-231 cells = experiment: Dual Sensor: MitoCasp Assay in MDA-MB-231 breast cancer cells; type: cell-based, human
Excerpt: as §1, §2
The MDA-MB-231 cell line (ATCC #HTB-26) was derived from the pleural effusion of a patient with a breast adenocarcinoma (Cailleau et al., 1974). The cells were maintained in RPMI 1640 (Gibco) supplemented with 10% fetal bovine serum (Camera), 100 U/mL penicillin, 100 μg/mL streptomycin and 0.25 μg/mL amphotericin B. Cultures were maintained in medium at 37° C. with 5% CO2 and 100% relative humidity. […]

[1] = tested on: PC-3, MDA-MB-231, WiDr, and HT-29 Cells; experiment: Order of apoptosis potency across cancer cell lines; set-up: species or system human; conditions: rank based on responses observed in PC-3, MDA-MB-231, WiDr, and HT-29 Cells; 1 = most active
[2] = 5.0 μM saponin, 36 hours (comparison of saponins)

## Segetoside H [PC1448]
CRL-2522 cells; 2.5 μM PC1448, 37 hr
  Cells with caspase 3/7 activity: 1.7%
  Cells with decreased mitochondrial membrane potential: 5.6%
CRL-2522 cells; 5.0 μM PC1448, 37 hr
  Cells with caspase 3/7 activity: 4.0%
  Cells with decreased mitochondrial membrane potential: 5.0%
CRL-2522 cells; 10.0 μM PC1448, 37 hr
  Cells with caspase 3/7 activity: 21.9%
  Cells with decreased mitochondrial membrane potential: 4.6%
CRL-2522 cells; 14 μM PC1448, 10-30 hr
  Effect on apoptosis (in words): no significant effect on apoptosis
CRL-2522 cells; 14 μM PC1448, 10 hr
  Cells with caspase 3/7 activity: 3.7%
  Cells with decreased mitochondrial membrane potential: 1.4%
CRL-2522 cells; 14 μM PC1448, 20 hr
  Cells with caspase 3/7 activity: 5.5%
  Cells with decreased mitochondrial membrane potential: 1.4%
CRL-2522 cells; 14 μM PC1448, 30 hr
  Cells with caspase 3/7 activity: 32.8%
  Cells with decreased mitochondrial membrane potential: 0.8%
CRL-2522 cells; 15.0 μM PC1448, 37 hr
  Cells with caspase 3/7 activity: 9.4%
  Cells with decreased mitochondrial membrane potential: 18.5%
CRL-2522 cells; PC1448 15.0-2.5 μM, 37 hours
  Cells with Caspase 3/7 activity and decreased mitochondrial membrane potential vs untreated (in words): variable increase
CRL-2522 cells
  Apoptosis in non-cancerous cell line (summary in words): no or little apoptosis
PC-3 cells; 14 μM PC1448, 06 hr
  Annexin-V positive cells: 12.4%
PC-3 cells; 14 μM PC1448, 16 hr
  Annexin-V positive cells: 28.3%
PC-3 cells; 14 μM PC1448, 24 hr
  Annexin-V positive cells: 34.7%
  Increase in Annexin V positive cells vs untreated: three fold
MDA-MB-231 cells; 2.5 μM PC1448, 36 hr
  Cells with caspase 3/7 activity: 19.3%
  Cells with decreased mitochondrial membrane potential: 9.9%
MDA-MB-231 cells; 5.0 μM PC1448, 36 hr
  Cells with caspase 3/7 activity: 25.8%
  Cells with decreased mitochondrial membrane potential: 12.6%
MDA-MB-231 cells; [2]
  Cells with caspase 3/7 activity: 12.8%
  Cells with decreased mitochondrial membrane potential: 5.3%
MDA-MB-231 cells; 10.0 μM PC1448, 36 hr
  Cells with caspase 3/7 activity: 40.0%
  Cells with decreased mitochondrial membrane potential: 17.9%
MDA-MB-231 cells; 15.0 μM PC1448, 36 hr
  Cells with caspase 3/7 activity: 40.9%
  Cells with decreased mitochondrial membrane potential: 20.8%
MDA-MB-231 cells; 36 hours
  Concentration of greatest effect on apoptosis: above 10 μM
  Induction of apoptosis at concentrations as low as: 5.0 µM
[1]
  Order of Apoptosis Potency: 7

## Segetoside I [PC1464]
CRL-2522 cells; 1.25 μM PC1464, 36 hr
  Cells with caspase 3/7 activity: 1.7%
  Cells with decreased mitochondrial membrane potential: 1.7%
CRL-2522 cells; 2.5 μM PC1464, 36 hr
  Cells with caspase 3/7 activity: 3.2%
  Cells with decreased mitochondrial membrane potential: 1.4%
CRL-2522 cells; 5.0 μM PC1464, 36 hr
  Cells with caspase 3/7 activity: 14.4%
  Cells with decreased mitochondrial membrane potential: 1.3%
CRL-2522 cells; 7 μM PC1464, 10-30 hr
  Effect on apoptosis (in words): minimal effect
CRL-2522 cells; 7 μM PC1464, 10 hr
  Cells with caspase 3/7 activity: 3.2%
  Cells with decreased mitochondrial membrane potential: 4.4%
CRL-2522 cells; 7 μM PC1464, 20 hr
  Cells with caspase 3/7 activity: 11.7%
  Cells with decreased mitochondrial membrane potential: 4.4%
CRL-2522 cells; 7 μM PC1464, 30 hr
  Cells with caspase 3/7 activity: 16.9%
  Cells with decreased mitochondrial membrane potential: 5.1%
CRL-2522 cells; 10.0 μM PC1464, 36 hr
  Cells with caspase 3/7 activity: 19.9%
  Cells with decreased mitochondrial membrane potential: 2.2%
CRL-2522 cells; PC1464 10.0-1.25 μM, 36 hours
  Cells with Caspase 3/7 activity and decreased mitochondrial membrane potential vs untreated (in words): slight increase
CRL-2522 cells
  Apoptosis in non-cancerous cell line (summary in words): no or little apoptosis
PC-3 cells; 7 μM PC1464, 10 hr
  Annexin-V positive cells: 21.0%
PC-3 cells; 7 μM PC1464, 20 hr
  Annexin-V positive cells: 30.9%
PC-3 cells; 7 μM PC1464, 30 hr
  Annexin-V positive cells: 44.7%
PC-3 cells; 7 μM or 14 μM PC1464, 30 hr
  Increase in Annexin V positive cells vs untreated: three to six fold
PC-3 cells; 14 μM PC1464, 10 hr
  Annexin-V positive cells: 11.5%
PC-3 cells; 14 μM PC1464, 20 hr
  Annexin-V positive cells: 28.9%
PC-3 cells; 14 μM PC1464, 30 hr
  Annexin-V positive cells: 49.4%
MDA-MB-231 cells; 1.25 μM PC1464, 35 hr
  Cells with caspase 3/7 activity: 16.7%
  Cells with decreased mitochondrial membrane potential: 15.6%
MDA-MB-231 cells; 2.5 μM PC1464, 35 hr
  Cells with caspase 3/7 activity: 32.4%
  Cells with decreased mitochondrial membrane potential: 21.2%
MDA-MB-231 cells; 3.5 μM PC1464, 12 hr
  Cells with caspase 3/7 activity: 20.0%
  Cells with decreased mitochondrial membrane potential: 19.9%
MDA-MB-231 cells; 3.5 μM PC1464, 24 hr
  Cells with caspase 3/7 activity: 27.5%
  Cells with decreased mitochondrial membrane potential: 51.5%
MDA-MB-231 cells; 3.5 μM PC1464, 36 hours
  Increase in number of cells with caspase 3/7 activity: two fold
  Increase in number of cells with reduced mitochondrial membrane potential: eight fold
MDA-MB-231 cells; 3.5 μM PC1464, 36 hr
  Cells with caspase 3/7 activity: 29.1%
  Cells with decreased mitochondrial membrane potential: 52.0%
MDA-MB-231 cells; 5.0 μM PC1464, 35 hr
  Cells with caspase 3/7 activity: 53.0%
  Cells with decreased mitochondrial membrane potential: 32.8%
MDA-MB-231 cells; [2]
  Cells with caspase 3/7 activity: 39.9%
  Cells with decreased mitochondrial membrane potential: 13.7%
MDA-MB-231 cells; 10.0 μM PC1464, 35 hr
  Cells with caspase 3/7 activity: 55.7%
  Cells with decreased mitochondrial membrane potential: 39.6%
MDA-MB-231 cells; 35 hours
  Concentration of greatest effect on apoptosis: above 5 μM
  Induction of apoptosis at concentrations as low as: 2.5 µM
[1]
  Order of Apoptosis Potency: 4
